We go through seven compounds from patent US4315020A, “Oxazoline (trifluoroethyl) amine” (Science Union et Cie, priority 1976, dated 1982).

The nature of this data set: solubility. Conditions: for solubility in the stoichiometric amount of N/10 hydrochloric acid: N/10 hydrochloric acid solution. The class given is physicochemical.

As for `FC(F)(F)C(NC1=NCCN1)c1ccccc1` (racemic) [I, 2(α-phenyl trifluoroethylamino) imidazoline], the “solubility in the stoichiometric amount of N/10 hydrochloric acid” value (stoichiometric amount) was “soluble”.
Take `FC(F)(F)C(NC1=NCCO1)c1ccco1` (racemic) [X, dl 2-[α-trifluoromethyl (furyl-2)methylamino] oxazoline]: where the note is “stoichiometric amount, dilute hydrochloric acid”, the “solubility in the stoichiometric amount of dilute hydrochloric acid” value is on record as “soluble”.
On to `Cn1cccc1C(NC1=NCCO1)C(F)(F)F` (racemic) [XIV, dl α-trifluoromethyl 2-[(N-methylpyrrolyl-2)methylamino] oxazoline], for which the “solubility in a N/10 aqueous solution of hydrochloric acid” value (N/10 aqueous hydrochloric acid) is recorded as “soluble”.
Consider `Cc1ccccc1C(NC1=NCCO1)C(F)(F)F` (racemic) [XIX, dl 2-[(2-methylphenyl) ααα-trifluoroethyl]amino oxazoline], for which the “solubility in the aqueous solution of mineral acids” value (aqueous mineral acids) is “soluble”. Besides, the “solubility in the usual organic solvents” value (usual organic solvents) was “soluble”.
Consider `CN(C1=NCCO1)C(c1ccccc1)C(F)(F)F` (racemic) [XV, dl α-trifluoromethyl 2-(N-methylbenzylamino) oxazoline], for which the “solubility in an aqueous solution of hydrochloric acid” value (aqueous hydrochloric acid) is “soluble”. Also, where the note is “most organic solvents”, the “solubility in the most of the organic solvents” value is “soluble”.
Take `FC(F)(F)C(NC1=NCCO1)c1ccc[nH]1` (racemic) [XVI, dl α-trifluoromethyl 2-[(pyrrolyl-2)methylamino] oxazoline]: the “solubility in the stoichiometric amount of N/10 hydrochloric acid” value (stoichiometric amount) was “soluble”.
As to `FC(F)(F)C(NC1=NCCO1)c1ccccc1` (single isomer, unassigned) [XII, levorotatory 2-[α-trifluoromethylbenzylamino] oxazoline], under “dilute hydrochloric acid”, the “solubility in dilute hydrochloric acid” value is “solbuble”.
